Laboratory results from patent publication US20250002954A1, “Novel Compound, Use Thereof, and Method for Producing Same, and Compound-Containing Composition, Method for Producing 4-Trehalosamine, and Microorganism” (Microbial Chemistry Research Foundation, priority 2021, published 2025).

Experiments:
Escherichia coli K-12 = experiment: Evaluation of Escherichia coli protective activity in freeze-dried condition; assay type: cell-based; details: for Numbers of live bacterial cells (relative numbers): Escherichia coli freeze-dried with 6% aqueous solution (final concentration 3%), test sample 3 (FD) = 1
Method: Using test samples 1 to 8 containing Escherichia coli prepared in the following manner, microorganism-protective activity with various kinds of sugar in a freeze-dried condition was evaluated.
Frozen stock of Escherichia coli (Escherichia coli K-12, owned by the Microbial Chemistry Research Foundation) was inoculated in 10 mL of Luria-Bertani (LB) culture medium (manufactured by Difco) and cultured at 37° C. for 24 hours while shaking it at 220 rpm. After culture, it was centrifuged at 3,000×g for 5 minutes, washed once with 10 mL of water, and then suspended in 10 mL of water, thus obtaining Escherichia coli suspension. 50 μL of water was added to and mixed with 50 μL of this Escherichia coli suspension and the mixture was left to stand at 4° C. for 12 hours, preparing control (NF).
After Escherichia coli suspension was prepared in a similar manner to test sample 1, 50 μL of 6% aqueous solution of trehalose was added to and mixed with 50 μL of the Escherichia coli suspension, and the mixture was frozen at −80° C. for 1 hour. It was then freeze-dried for 12 hours with a freeze dryer (FLEXI-DRY, manufactured by FTS systems INC., Warminster) connected to a vacuum pump (P65D, manufactured by PHIL Sato Vac INC.), preparing freeze-dried product (TRH) of Escherichia coli with TRH.
Freeze-dried product (4TA) of Escherichia coli with 4TA was obtained in a similar manner to the preparation method of test sample 4 except that trehalose was changed to 4-trehalosamine (4TA) in the preparation method of test sample 4.
Freeze-dried product (MLT) of Escherichia coli with MLT was obtained in a similar manner to the preparation method of test sample 4 except that trehalose was changed to maltose (MLT) in the preparation method of test sample 4.
Freeze-dried product (SCR) of Escherichia coli with SCR was obtained in a similar manner to the preparation method of test sample 4 except that trehalose was changed to sucrose (SCR) in the preparation method of test sample 4.
Freeze-dried product (GOL) of Escherichia coli with GOL was obtained in a similar manner to the preparation method of test sample 4 except that trehalose was changed to glycerol (GOL) in the preparation method of test sample 4.
For test samples 1 and 2, serial suspensions were made by diluting them to 1/10 with water. 100 μL of water was added to each of the freeze-dried products of test samples 3 to 8 and diluted to 1/10 with water to make their serial suspensions. 80 μL of water was added to 10 μL of each diluted solution.
In a 6-well microplate, 2% Agar-LB was prepared at 3 mL/well, and 90 μL of each diluted solution was inoculated on the 2% Agar-LB and cultured at 37° C. for 24 hours.
Wells in which the number of colonies was measurable were selected and the numbers (relative numbers) of live bacterial cells per well on test samples 1, 2, and 4 to 8 when the number of live bacterial cells per well on test sample 3 (FD) was “1” were calculated in consideration of the dilution concentrations of those test samples.

[1] = target: T1, yeast alcohol dehydrogenase (ADH) (Saccharomyces cerevisiae, UniProt P00330); experiment: Evaluation of ADH-protective activity under freeze-dried condition; assay type: biochemical; details: for ADH activity after freeze-drying: freeze-dried with 1% or 3% sugar, GOL 3%
T1 construct: purchased Oriental Yeast Co., Ltd
T1 sequence (P00330 1-348): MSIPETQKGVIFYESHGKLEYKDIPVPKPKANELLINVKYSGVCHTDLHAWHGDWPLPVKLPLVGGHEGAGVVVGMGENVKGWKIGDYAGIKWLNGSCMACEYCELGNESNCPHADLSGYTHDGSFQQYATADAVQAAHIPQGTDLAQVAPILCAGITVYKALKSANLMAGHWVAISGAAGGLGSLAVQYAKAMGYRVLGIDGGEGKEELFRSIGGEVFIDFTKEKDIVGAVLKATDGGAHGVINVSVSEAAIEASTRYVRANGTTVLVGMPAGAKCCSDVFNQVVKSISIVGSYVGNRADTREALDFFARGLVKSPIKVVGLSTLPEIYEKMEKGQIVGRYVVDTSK
Method: Test samples 1 to 12 containing yeast alcohol dehydrogenase (ADH) were prepared as follows and protein-protective activity of various kinds of added sugar under freeze-dried condition was evaluated.
Yeast alcohol dehydrogenase (manufactured by Oriental Yeast Co., Ltd.) was dissolved in water at 1,000 units/mL and then diluted to 6 units/mL with TBS (manufactured by Takara Bio Inc.). 50 μL of TBS containing 2% trehalose (TRH) was added to and mixed with 50 μL of this enzyme solution and the mixture was frozen at −80° C. for 10 minutes. It was then freeze-dried for 20 hours with a freeze dryer (FLEXI-DRY, manufactured by FTS systems INC., Warminster) connected to a vacuum pump (P65D, manufactured by PHIL Sato Vac INC.), preparing freeze-dried product of enzyme with 1% TRH.
Freeze-dried product of enzyme with 3% TRH was prepared in a similar manner to the preparation method of test sample 4 except that the final concentration of trehalose was changed to 3% in the preparation method of test sample 4.
Freeze-dried product of enzyme with 1% 4TA was prepared in a similar manner to the preparation method of test sample 4 except that trehalose was changed to 4-trehalosamine (4TA) in the preparation method of test sample 4.
Freeze-dried product of enzyme with 3% 4TA was prepared in a similar manner to the preparation method of test sample 5 except that trehalose was changed to 4-trehalosamine (4TA) in the preparation method of test sample 5.
Freeze-dried product of enzyme with 1% MLT was prepared in a similar manner to the preparation method of test sample 4 except that trehalose was changed to maltose (MLT) in the preparation method of test sample 4.
Freeze-dried product of enzyme with 3% MLT was prepared in a similar manner to the preparation method of test sample 5 except that trehalose was changed to maltose (MLT) in the preparation method of test sample 5.
Freeze-dried product of enzyme with 1% SCR was prepared in a similar manner to the preparation method of test sample 4 except that trehalose was changed to sucrose (SCR) in the preparation method of test sample 4.
Freeze-dried product of enzyme with 3% SCR was prepared in a similar manner to the preparation method of test sample 5 except that trehalose was changed to sucrose (SCR) in the preparation method of test sample 5.
Freeze-dried product of enzyme with 3% GOL was prepared in a similar manner to the preparation method of test sample 5 except that trehalose was changed to glycerol (GOL) in the preparation method of test sample 5.
The enzyme solution from test sample 1, the freeze-thaw product of enzyme from test sample 2, and the freeze-dried products from test samples 3 to 12 were each diluted to 0.012 units/mL with TBS. 0.5 mM β-NAD^+ (manufactured by Oriental Yeast Co., Ltd.) and 0.62 M ethanol were added, and enzyme reaction was left to take place at room temperature for 1 hour. After the reaction, absorbance at 340 nm was measured with a microplate reader (Cytation5, manufactured by Bio Tek Instruments) (n=3, mean±S.D.). The value of this absorbance at 340 nm was divided by the value of absorbance at 340 nm for the enzyme solution of test sample 1 (control) to determine ADH activity.

SMILES	Numbers of live bacterial cells (relative numbers) (Escherichia coli K-12)	ADH activity after freeze-drying [1]	protective effect on microorganisms, comparison (Escherichia coli K-12; Escherichia coli, freeze-dried)	ADH protection effect compared to other sugars ([1]; freeze-dried)
OCC(O)CO [GOL, glycerol]	0	enzyme activity significantly dropped	–	–
OC[C@H]1O[C@H](O[C@H]2[C@H](O)[C@@H](O)C(O)O[C@@H]2CO)[C@H](O)[C@@H](O)[C@@H]1O (mixture of isomers) [maltose]	10	good activity was maintained	–	–
N[C@H]1[C@H](O)[C@@H](O)[C@@H](O[C@H]2O[C@H](CO)[C@@H](O)[C@H](O)[C@H]2O)O[C@@H]1CO [4-trehalosamine]	100	good activity was maintained	stronger than when the other sugars were added	high compared to the other sugars
OC[C@H]1O[C@@](CO)(O[C@H]2O[C@H](CO)[C@@H](O)[C@H](O)[C@H]2O)[C@@H](O)[C@@H]1O [sucrose]	100	good activity was maintained	–	–
OC[C@H]1O[C@H](O[C@H]2O[C@H](CO)[C@@H](O)[C@H](O)[C@H]2O)[C@H](O)[C@@H](O)[C@@H]1O [trehalose, reference compound]	10	good activity was maintained	–	–
